Test system: healthy participants
Experiment: Phase 1 study: Rapid Visual Information Processing (RVPA)
Assay type: in vivo, human
Settings: Treatment V6 Day 28 (remote)
Source text: In some embodiments, the Rapid Visual Information Processing (RVP) test is utilized to evaluate the safety and efficacy of psilocybin. The RVP is a measure of sustained attention outputting measures of response accuracy, target sensitivity and reaction times. In this test, the study subject is required to monitor a stream of digits from 2 to 9 for specific sequences (e.g., 3-5-7) and to acknowledge detection of the sequence by touching the on-screen response button as quickly as possible after presentation of the third digit. Digits are presented pseudorandomly to create the possibility of ‘false alarm’ responses in which the first 2 digits of a sequence are not followed by a true target, e.g., when 3 is followed by a 5, but not then by a 7. In order to complete the task successfully study subjects must sustain attention to the white box in which the digits appear. Performance on this task is measured by the speed of response to the presentation of the final digit of a target, as well as the study subject's ability to detect specified sequences. […]
To assess the effects of psilocybin on cognitive processing, a clinical trial testing psilocybin in healthy participants was performed. […] Rapid visual information processing (RVP), a sensitive measure of sustained attention, was assessed twice prior to dosing (Day 0): during screening (Day −2) and at baseline (Day −1). […]

## CN(C)CCc1c[nH]c2cccc(OP(=O)(O)O)c12 [Psilocybin, psilocybin]
10 mg single oral
  RVPA difference of least squares mean compared to placebo group, LS mean Estimate: 0.01096
25 mg single oral
  RVPA difference of least squares mean compared to placebo group, LS mean Estimate: 0.01225

— patent US12377112B2, “Methods of treating neurocognitive disorders, chronic pain and reducing inflammation” (priority 2019, dated 2025)
